Assay results from patent publication US20230017045A1, “PYRIDINE AND PYRIMIDINE CARBOXYLATE HERBICIDES AND METHODS OF USE THEREOF” (Dow AgroSciences LLC, priority 2017, published 2023).

tested on: test plant species; experiment: Post-emergent herbicidal activity test (greenhouse, foliar spray, visual growth reduction); assay type: in vivo; conditions: post-emergence, 336 h, ALOMY: blackgrass (Alopecurus myosuroides), 140 g ai/ha, 14 days after application, read-out: Visual Growth Reduction (%) 14 Days After Application, ALOMY
Outline: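 Visual scoring 14 d after treatment (0 = no injury, 100 = complete control) against nontreated and solvent-blank plants gave percent growth reduction. Foliar application used a track sprayer delivering 187 L/ha to seedlings at first or second true leaf stage, grown at 23–29 °C day, ~15 h photoperiod.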

Row | Compound | pest or weed control at 140 g/ha [%]
1 | COC(=O)c1nc(-c2ccc(C(F)(F)F)cc2Cl)c(O)cc1Cl [F34, methyl 3-chloro-6-(2-chloro-4-(trifluoromethyl)phenyl)-5-hydroxypicolinate] | 0 to 29
2 | COC(=O)c1nc(-c2ccc(C(F)(F)F)cc2Cl)ccc1C(F)(F)F [F9, Methyl 6-(2-chloro-4-(trifluoromethyl)phenyl)-3-(trifluoromethyl) picolinate] | 0 to 29

same assay, conditions: post-emergence, 336 h, AMARE: redroot pigweed (Amaranthus retroflexus), 140 g ai/ha, 14 days after application, read-out: Visual Growth Reduction (%) 14 Days After Application, AMARE

Row | Compound | pest or weed control at 140 g/ha [%]
3 | COC(=O)c1nc(-c2ccc(C(F)(F)F)cc2Cl)c(O)cc1Cl [F34, methyl 3-chloro-6-(2-chloro-4-(trifluoromethyl)phenyl)-5-hydroxypicolinate] | 0 to 29
4 | COC(=O)c1nc(-c2ccc(C(F)(F)F)cc2Cl)ccc1C(F)(F)F [F9, Methyl 6-(2-chloro-4-(trifluoromethyl)phenyl)-3-(trifluoromethyl) picolinate] | 30 to 44

same assay, conditions: post-emergence, 336 h, AVEFA: wild oat (Avena fatua), 140 g ai/ha, 14 days after application, read-out: Visual Growth Reduction (%) 14 Days After Application, AVEFA

Row | Compound | pest or weed control at 140 g/ha [%]
5 | COC(=O)c1nc(-c2ccc(C(F)(F)F)cc2Cl)c(O)cc1Cl [F34, methyl 3-chloro-6-(2-chloro-4-(trifluoromethyl)phenyl)-5-hydroxypicolinate] | 0 to 29
6 | COC(=O)c1nc(-c2ccc(C(F)(F)F)cc2Cl)ccc1C(F)(F)F [F9, Methyl 6-(2-chloro-4-(trifluoromethyl)phenyl)-3-(trifluoromethyl) picolinate] | 0 to 29

same assay, conditions: post-emergence, 336 h, CHEAL: lambsquarters (Chenopodium album), 140 g ai/ha, 14 days after application, read-out: Visual Growth Reduction (%) 14 Days After Application, CHEAL

Row | Compound | pest or weed control at 140 g/ha [%]
7 | COC(=O)c1nc(-c2ccc(C(F)(F)F)cc2Cl)c(O)cc1Cl [F34, methyl 3-chloro-6-(2-chloro-4-(trifluoromethyl)phenyl)-5-hydroxypicolinate] | 45 to 59
8 | COC(=O)c1nc(-c2ccc(C(F)(F)F)cc2Cl)ccc1C(F)(F)F [F9, Methyl 6-(2-chloro-4-(trifluoromethyl)phenyl)-3-(trifluoromethyl) picolinate] | 0 to 29

same assay, conditions: post-emergence, 336 h, CIRAR: canada thistle (Cirsium arvense), 140 g ai/ha, 14 days after application, read-out: Visual Growth Reduction (%) 14 Days After Application, CIRAR

Row | Compound | pest or weed control at 140 g/ha [%]
9 | COC(=O)c1nc(-c2ccc(C(F)(F)F)cc2Cl)c(O)cc1Cl [F34, methyl 3-chloro-6-(2-chloro-4-(trifluoromethyl)phenyl)-5-hydroxypicolinate] | 0 to 29
10 | COC(=O)c1nc(-c2ccc(C(F)(F)F)cc2Cl)ccc1C(F)(F)F [F9, Methyl 6-(2-chloro-4-(trifluoromethyl)phenyl)-3-(trifluoromethyl) picolinate] | 0 to 29

same assay, conditions: post-emergence, 336 h, CYPES: yellow nutsedge (Cyperus esculentus), 140 g ai/ha, 14 days after application, read-out: Visual Growth Reduction (%) 14 Days After Application, CYPES

Row | Compound | pest or weed control at 140 g/ha [%]
11 | COC(=O)c1nc(-c2ccc(C(F)(F)F)cc2Cl)c(O)cc1Cl [F34, methyl 3-chloro-6-(2-chloro-4-(trifluoromethyl)phenyl)-5-hydroxypicolinate] | 0 to 29
12 | COC(=O)c1nc(-c2ccc(C(F)(F)F)cc2Cl)ccc1C(F)(F)F [F9, Methyl 6-(2-chloro-4-(trifluoromethyl)phenyl)-3-(trifluoromethyl) picolinate] | 0 to 29

same assay, conditions: post-emergence, 336 h, DIGSA: crabgrass (Digitaria sanguinalis), 140 g ai/ha, 14 days after application, read-out: Visual Growth Reduction (%) 14 Days After Application, DIGSA

Row | Compound | pest or weed control at 140 g/ha [%]
13 | COC(=O)c1nc(-c2ccc(C(F)(F)F)cc2Cl)c(O)cc1Cl [F34, methyl 3-chloro-6-(2-chloro-4-(trifluoromethyl)phenyl)-5-hydroxypicolinate] | 0 to 29
14 | COC(=O)c1nc(-c2ccc(C(F)(F)F)cc2Cl)ccc1C(F)(F)F [F9, Methyl 6-(2-chloro-4-(trifluoromethyl)phenyl)-3-(trifluoromethyl) picolinate] | 0 to 29

same assay, conditions: post-emergence, 336 h, ECHCG: barnyardgrass (Echinochloa crus-galli), 140 g ai/ha, 14 days after application, read-out: Visual Growth Reduction (%) 14 Days After Application, ECHCG

Row | Compound | pest or weed control at 140 g/ha [%]
15 | COC(=O)c1nc(-c2ccc(C(F)(F)F)cc2Cl)c(O)cc1Cl [F34, methyl 3-chloro-6-(2-chloro-4-(trifluoromethyl)phenyl)-5-hydroxypicolinate] | 0 to 29

same assay, conditions: post-emergence, 336 h, IPOHE: ivy-leaf morning glory (Ipomoea hederacea), 140 g ai/ha, 14 days after application, read-out: Visual Growth Reduction (%) 14 Days After Application, IPOHE

Row | Compound | pest or weed control at 140 g/ha [%]
16 | COC(=O)c1nc(-c2ccc(C(F)(F)F)cc2Cl)c(O)cc1Cl [F34, methyl 3-chloro-6-(2-chloro-4-(trifluoromethyl)phenyl)-5-hydroxypicolinate] | 0 to 29

same assay, conditions: post-emergence, 336 h, KCHSC: kochia (Bassia scoparia), 140 g ai/ha, 14 days after application, read-out: Visual Growth Reduction (%) 14 Days After Application, KCHSC

Row | Compound | pest or weed control at 140 g/ha [%]
17 | COC(=O)c1nc(-c2ccc(C(F)(F)F)cc2Cl)c(O)cc1Cl [F34, methyl 3-chloro-6-(2-chloro-4-(trifluoromethyl)phenyl)-5-hydroxypicolinate] | 0 to 29

same assay, conditions: post-emergence, 336 h, ORYSA: rice (Oryza sativa), 140 g ai/ha, 14 days after application, read-out: Visual Growth Reduction (%) 14 Days After Application, ORYSA

Row | Compound | pest or weed control at 140 g/ha [%]
18 | COC(=O)c1nc(-c2ccc(C(F)(F)F)cc2Cl)c(O)cc1Cl [F34, methyl 3-chloro-6-(2-chloro-4-(trifluoromethyl)phenyl)-5-hydroxypicolinate] | 0 to 29

same assay, conditions: post-emergence, 336 h, SETFA: giant foxtail (Setaria faberi), 140 g ai/ha, 14 days after application, read-out: Visual Growth Reduction (%) 14 Days After Application, SETFA

Row | Compound | pest or weed control at 140 g/ha [%]
19 | COC(=O)c1nc(-c2ccc(C(F)(F)F)cc2Cl)c(O)cc1Cl [F34, methyl 3-chloro-6-(2-chloro-4-(trifluoromethyl)phenyl)-5-hydroxypicolinate] | 0 to 29

same assay, conditions: post-emergence, 336 h, SORVU: grain sorghum (Sorghum vulgare), 140 g ai/ha, 14 days after application, read-out: Visual Growth Reduction (%) 14 Days After Application, SORVU

Row | Compound | pest or weed control at 140 g/ha [%]
20 | COC(=O)c1nc(-c2ccc(C(F)(F)F)cc2Cl)c(O)cc1Cl [F34, methyl 3-chloro-6-(2-chloro-4-(trifluoromethyl)phenyl)-5-hydroxypicolinate] | 0 to 29

same assay, conditions: post-emergence, 336 h, STEME: common chickweed (Stellaria media), 140 g ai/ha, 14 days after application, read-out: Visual Growth Reduction (%) 14 Days After Application, STEME

Row | Compound | pest or weed control at 140 g/ha [%]
21 | COC(=O)c1nc(-c2ccc(C(F)(F)F)cc2Cl)c(O)cc1Cl [F34, methyl 3-chloro-6-(2-chloro-4-(trifluoromethyl)phenyl)-5-hydroxypicolinate] | 0 to 29

same assay, conditions: post-emergence, 336 h, TRZAS: wheat, spring (Triticum aestivum), 140 g ai/ha, 14 days after application, read-out: Visual Growth Reduction (%) 14 Days After Application, TRZAS

Row | Compound | pest or weed control at 140 g/ha [%]
22 | COC(=O)c1nc(-c2ccc(C(F)(F)F)cc2Cl)c(O)cc1Cl [F34, methyl 3-chloro-6-(2-chloro-4-(trifluoromethyl)phenyl)-5-hydroxypicolinate] | 0 to 29

same assay, conditions: post-emergence, 336 h, barnyardgrass (Echinochloa crus-galli), 14 Days After Application, 140 g ai/ha, read-out: Visual Growth Reduction (%) ECHCG

Row | Compound | pest or weed control at 140 g/ha [%]
23 | COC(=O)c1nc(-c2ccc(C(F)(F)F)cc2Cl)ccc1C(F)(F)F [F9, Methyl 6-(2-chloro-4-(trifluoromethyl)phenyl)-3-(trifluoromethyl) picolinate] | 0 to 29

same assay, conditions: post-emergence, 336 h, common chickweed (Stellaria media), 14 Days After Application, 140 g ai/ha, read-out: Visual Growth Reduction (%) STEME

Row | Compound | pest or weed control at 140 g/ha [%]
24 | COC(=O)c1nc(-c2ccc(C(F)(F)F)cc2Cl)ccc1C(F)(F)F [F9, Methyl 6-(2-chloro-4-(trifluoromethyl)phenyl)-3-(trifluoromethyl) picolinate] | 0 to 29

same assay, conditions: post-emergence, 336 h, giant foxtail (Setaria faberi), 14 Days After Application, 140 g ai/ha, read-out: Visual Growth Reduction (%) SETFA

Row | Compound | pest or weed control at 140 g/ha [%]
25 | COC(=O)c1nc(-c2ccc(C(F)(F)F)cc2Cl)ccc1C(F)(F)F [F9, Methyl 6-(2-chloro-4-(trifluoromethyl)phenyl)-3-(trifluoromethyl) picolinate] | 0 to 29

same assay, conditions: post-emergence, 336 h, ivy-leaf morning glory (Ipomoea hederacea), 14 Days After Application, 140 g ai/ha, read-out: Visual Growth Reduction (%) IPOHE

Row | Compound | pest or weed control at 140 g/ha [%]
26 | COC(=O)c1nc(-c2ccc(C(F)(F)F)cc2Cl)ccc1C(F)(F)F [F9, Methyl 6-(2-chloro-4-(trifluoromethyl)phenyl)-3-(trifluoromethyl) picolinate] | 45 to 59

same assay, conditions: post-emergence, 336 h, johnsongrass (Sorghum vulgare), 14 Days After Application, 140 g ai/ha, read-out: Visual Growth Reduction (%) SORVU

Row | Compound | pest or weed control at 140 g/ha [%]
27 | COC(=O)c1nc(-c2ccc(C(F)(F)F)cc2Cl)ccc1C(F)(F)F [F9, Methyl 6-(2-chloro-4-(trifluoromethyl)phenyl)-3-(trifluoromethyl) picolinate] | 0 to 29

same assay, conditions: post-emergence, 336 h, kochia (Bassia scoparia), 14 Days After Application, 140 g ai/ha, read-out: Visual Growth Reduction (%) KCHSC

Row | Compound | pest or weed control at 140 g/ha [%]
28 | COC(=O)c1nc(-c2ccc(C(F)(F)F)cc2Cl)ccc1C(F)(F)F [F9, Methyl 6-(2-chloro-4-(trifluoromethyl)phenyl)-3-(trifluoromethyl) picolinate] | 0 to 29

same assay, conditions: post-emergence, 336 h, rice (Oryza sativa), 14 Days After Application, 140 g ai/ha, read-out: Visual Growth Reduction (%) ORYSA

Row | Compound | pest or weed control at 140 g/ha [%]
29 | COC(=O)c1nc(-c2ccc(C(F)(F)F)cc2Cl)ccc1C(F)(F)F [F9, Methyl 6-(2-chloro-4-(trifluoromethyl)phenyl)-3-(trifluoromethyl) picolinate] | 0 to 29

same assay, conditions: post-emergence, 336 h, wheat, spring (Triticum aestivum), 14 Days After Application, 140 g ai/ha, read-out: Visual Growth Reduction (%) TRZAS

Row | Compound | pest or weed control at 140 g/ha [%]
30 | COC(=O)c1nc(-c2ccc(C(F)(F)F)cc2Cl)ccc1C(F)(F)F [F9, Methyl 6-(2-chloro-4-(trifluoromethyl)phenyl)-3-(trifluoromethyl) picolinate] | 0 to 29
